Results as given in US20130324576A1, “THERAPEUTIC COMPOUNDS” (Takeda Pharmaceutical Company Limited, priority 2012, published 2013).

Target: T1, human PKR1 receptors (Homo sapiens, UniProt Q8TCW9)
T1 construct: expressed in transfected cells; host or cells: RBL2H3 cells (rat basophilic leukaemia line) expressing human PKR1
Assay: PKR1 antagonist assay: block of PK1-mediated intracellular calcium release (FLIPR Tetra, Calcium 5 dye)
Format: cell-based
Details: RBL2H3 cells expressing human PKR1; 10 min pre-incubation, stimulation with PK1 at EC80; calcium fluorescence
Description: Prokineticin receptor 1 (PKR1) antagonists may be functionally assessed by measurement of change in intracellular calcium levels induced by Gq mediated increase in inositol triphosphate (IP3) levels. The ability of a compound to block the intracellular release of calcium mediated by PK1 in RBL2H3 cells expressing human PKR1 receptors is determined as a measure of the compound's antagonist activity in vitro.
Approximately 10,000 cells per assay well are seeded in normal culture medium in a 384 well plate (Corning). Twenty-four hours after seeding, the cells are loaded with a calcium sensitive fluorescent dye by replacing the culture medium with assay buffer (1× Hanks buffered saline, 25 mM HEPES, 0.1% w/v fatty acid free BSA (bovine serum albumin), pH 7.4) containing 1 mM probenecid and 1× Calcium 5 Reagent (Molecular Devices). Cells are incubated at 37° C. for 1 hour to allow for dye uptake.
To test for antagonist activity, test compounds at a final concentration range between 0.32 nM-10 μM (diluted in assay buffer) are added to the assay wells and allowed to incubate for 10 minutes prior to stimulation with PK1. After incubation with test compounds the assay plate is placed in a FLIPR Tetra (Molecular Devices) and PK1 (diluted in assay buffer) is added at the determined EC80 concentration (final). Ligand-dependent changes in intracellular calcium levels are determined by measuring changes in fluorescence of the dye at […] following excitation at 485 nm.

T1 sequence (Q8TCW9 whole entry): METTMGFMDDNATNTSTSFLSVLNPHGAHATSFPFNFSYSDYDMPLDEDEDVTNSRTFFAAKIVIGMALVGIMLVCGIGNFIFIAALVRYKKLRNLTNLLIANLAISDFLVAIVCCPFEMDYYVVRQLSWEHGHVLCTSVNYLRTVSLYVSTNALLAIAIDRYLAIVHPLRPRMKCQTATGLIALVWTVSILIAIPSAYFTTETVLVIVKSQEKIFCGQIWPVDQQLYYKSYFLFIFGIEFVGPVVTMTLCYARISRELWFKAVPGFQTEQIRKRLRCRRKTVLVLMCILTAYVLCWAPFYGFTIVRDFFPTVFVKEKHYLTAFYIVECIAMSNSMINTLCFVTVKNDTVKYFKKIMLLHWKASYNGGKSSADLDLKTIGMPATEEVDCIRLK

Cc1nn(C)c(C)c1S(=O)(=O)N1CCC(Oc2c(F)cc(Cl)cc2F)CC1 [Example 46, 4-(4-Chloro-2,6-difluorophenoxy)-1-(trimethyl-1H-pyrazole-4-sulfonyl)piperidine]
IC50: 1000 nM

Cc1ccc(OC2CCN(S(=O)(=O)c3c(C)nn(C)c3Cl)CC2)cc1 [Example 11, 1-[(5-Chloro-1,3-dimethyl-1H-pyrazol-4-yl)sulfonyl]-4-(4-methylphenoxy)piperidine]
IC50: 860 nM

Cc1n[nH]c(C)c1S(=O)(=O)N1CCC(Cc2ccc(Cl)cc2)CC1 [Example 67, 4-(4-Chlorobenzyl)-1-((3,5-dimethyl-1H-pyrazol-4-yl)sulfonyl)piperidine]
IC50: 520 nM

COC(c1ccc(Cl)cc1)C1CCN(S(=O)(=O)c2c(C)n[nH]c2C)CC1 (stereo not drawn) [Example 96, 4-((4-Chlorophenyl)(methoxy)methyl)-1-((3,5-dimethyl-1H-pyrazol-4-yl)sulfonyl)piperidine]
IC50: 80 nM

CCOC(c1ccc(Cl)cc1)C1CCN(S(=O)(=O)c2c(C)n[nH]c2C)CC1 (stereo not drawn) [Example 104, 4-((4-Chlorophenyl)(ethoxy)methyl)-1-((3,5-dimethyl-1H-pyrazol-4-yl)sulfonyl)piperidine]
IC50: 720 nM

COC(c1ccc(Cl)cc1)C1CCN(S(=O)(=O)c2c(C)nn(C)c2C)CC1 (stereo not drawn) [Example 99, 4-((4-Chlorophenyl)(methoxy)methyl)-1-((1,3,5-trimethyl-1H-pyrazol-4-yl)sulfonyl)piperidine]
IC50: 60 nM

Cc1n[nH]c(C)c1S(=O)(=O)N1CCC(C(O)c2ccc(Cl)cc2)CC1 (stereo not drawn) [Example 94]
IC50: 1740 nM

Cc1nn(C)c(Cl)c1S(=O)(=O)N1CCC(Oc2ccc(Cl)cc2Cl)CC1 [Example 25, 1-[(5-Chloro-1,3-dimethyl-1H-pyrazol-4-yl)sulfonyl]-4-(2,4-dichlorophenoxy)piperidine]
IC50: 1300 nM

Cc1n[nH]c(C)c1S(=O)(=O)N1CCC(O)(Cc2ccc(Cl)cc2)CC1 [Example 108, 4-(4-Chlorobenzyl)-1-((3,5-dimethyl-1H-pyrazol-4-yl)sulfonyl)piperidin-4-ol]
IC50: 1640 nM

Cc1nn(C)c(C)c1S(=O)(=O)N1CCC(Cc2ccc(Cl)c(Cl)c2)CC1 [Example 56, 4-(3,4-Dichlorobenzyl)-1-((1,3,5-trimethyl-1H-pyrazol-4-yl)sulfonyl)piperidine]
IC50: 950 nM

Cc1nn(C)cc1S(=O)(=O)N1CCC(Oc2ccc(Cl)cc2Cl)CC1 [Example 27, 4-(2,4-Dichlorophenoxy)-1-[(1,3-dimethyl-1H-pyrazol-4-yl)sulfonyl]piperidine]
IC50: 5600 nM

Cc1n[nH]c(C)c1S(=O)(=O)N1CCC(Oc2ccc(Cl)cc2)CC1 [Example 8, 4-(4-Chlorophenoxy)-1-[(3,5-dimethyl-1H-pyrazol-4-yl)sulfonyl]piperidine]
IC50: 1450 nM

Cc1nn(C)c(C)c1S(=O)(=O)N1CCC(Oc2ccc(Cl)cc2)C(C)C1 (stereo not drawn) [Example 21, 4-(4-Chlorophenoxy)-3-methyl-1-[(1,3,5-trimethyl-1H-pyrazol-4-yl)sulfonyl]piperidine]
IC50: 2100 nM

COc1cc(Cl)ccc1CC1(F)CCN(S(=O)(=O)c2c(C)n[nH]c2C)CC1 [Example 90, 4-(4-Chloro-2-methoxybenzyl)-1-((3,5-dimethyl-1H-pyrazol-4-yl)sulfonyl)-4-fluoropiperidine]
IC50: 170 nM

Cc1nn(C)c(C)c1S(=O)(=O)N1CCC(Oc2ccc(Cl)c(Cl)c2)CC1 [Example 1, 4-(3,4-Dichlorophenoxy)-1-((1,3,5-trimethyl-1H-pyrazol-4-yl)sulfonyl)piperidine]
IC50: 1400 nM

Cc1n[nH]c(C)c1S(=O)(=O)N1CCC(Oc2ccc(Cl)cc2C#N)CC1 [Example 34, 5-Chloro-2-{[1-(3,5-dimethyl-1H-pyrazole-4-sulfonyl)piperidin-4-yl]oxy}benzonitrile]
IC50: 240 nM

COC(c1ccc(Cl)cc1)C1CCN(S(=O)(=O)c2c(C)n[nH]c2C)CC1 (single isomer, unassigned) [Example 97, 4-((4-Chlorophenyl)(methoxy)methyl)-1-((3,5-dimethyl-1H-pyrazol-4-yl)sulfonyl)piperidine]
IC50: 4620 nM

Cc1nn(C(F)F)c(C)c1S(=O)(=O)N1CCC(Oc2ccc(Cl)cc2Cl)CC1 [Example 29]
IC50: 1100 nM

Cc1nn(C)c(C)c1S(=O)(=O)N1CCC(Oc2ccccc2)CC1 [Example 19, 4-Phenoxy-1-[(1,3,5-trimethyl-1H-pyrazol-4-yl)sulfonyl]piperidine]
IC50: 5600 nM

COc1cc(Cl)cnc1OC1CCN(S(=O)(=O)c2c(C)nn(C)c2C)CC1 [Example 84, 5-Chloro-3-methoxy-2-((1-((1,3,5-trimethyl-1H-pyrazol-4-yl)sulfonyl)piperidin-4-yl)oxy)pyridine]
IC50: 720 nM

Cc1n[nH]c(C)c1S(=O)(=O)N1CCC(C(C)(O)c2ccc(Cl)cc2)CC1 (stereo not drawn) [Example 101, 1-(4-Chlorophenyl)-1-(1-((3,5-dimethyl-1H-pyrazol-4-yl)sulfonyl)piperidin-4-yl)ethanol]
IC50: 2380 nM

Cc1n[nH]c(C)c1S(=O)(=O)N1CCC(Cc2ccc(Cl)c(F)c2)CC1 [Example 71, 4-(4-Chloro-3-fluorobenzyl)-1-((3,5-dimethyl-1H-pyrazol-4-yl)sulfonyl)piperidine]
IC50: 780 nM

Cc1nn(C)c(C)c1S(=O)(=O)N1CCC(Cc2ccc(Cl)cc2)CC1 [Example 55, 4-(4-Chlorobenzyl)-1-((1,3,5-trimethyl-1H-pyrazol-4-yl)sulfonyl)piperidine]
IC50: 520 nM

CCOC(=O)C1(Cc2ccc(Br)cc2)CCN(S(=O)(=O)c2c(C)nn(C)c2C)CC1 [Example 63, Ethyl 4-(4-bromobenzyl)-1-((1,3,5-trimethyl-1H-pyrazol-4-yl)sulfonyl)piperidine-4-carboxylate]
IC50: 640 nM

Cc1nn(C)c(C)c1S(=O)(=O)N1CCC(Oc2ccc(Cl)c(F)c2)CC1 [Example 45, 4-(4-Chloro-3-fluorophenoxy)-1-(trimethyl-1H-pyrazole-4-sulfonyl)piperidine]
IC50: 1400 nM

COc1cc(Cl)ccc1OC1CCN(S(=O)(=O)c2c(C)n[nH]c2C)CC1 [Example 73, 4-(4-Chloro-2-methoxyphenoxy)-1-((3,5-dimethyl-1H-pyrazol-4-yl)sulfonyl)piperidine]
IC50: 200 nM

Cc1n[nH]c(C)c1S(=O)(=O)N1CCC(Oc2ccc(Cl)c(Cl)c2)CC1 [Example 2, 4-(3,4-Dichlorophenoxy)-1-[(3,5-dimethyl-1H-pyrazol-4-yl)sulfonyl]piperidine]
IC50: 1000 nM

COc1cc(Cl)ccc1CC1CCN(S(=O)(=O)c2c(C)n[nH]c2C)CC1 [Example 78, 4-(4-Chloro-2-methoxybenzyl)-1-((3,5-dimethyl-1H-pyrazol-4-yl)sulfonyl)piperidine]
IC50: 70 nM

COc1cc(Cl)ccc1CC1(OC)CCN(S(=O)(=O)c2c(C)nn(C)c2C)CC1 [Example 87, 4-(4-Chloro-2-methoxybenzyl)-4-methoxy-1-((1,3,5-trimethyl-1H-pyrazol-4-yl)sulfonyl)piperidine]
IC50: 5880 nM

CCc1n[nH]c(CC)c1S(=O)(=O)N1CCC(Cc2ccc(Cl)cc2)CC1 [Example 66, 4-(4-Chlorobenzyl)-1-((3,5-diethyl-1H-pyrazol-4-yl)sulfonyl)piperidine]
IC50: 1010 nM

Cc1nn(C)c(C)c1S(=O)(=O)N1CCC(Oc2ccc(Cl)cc2C#N)CC1 [Example 31, 5-Chloro-2-{[1-(trimethyl-1H-pyrazole-4-sulfonyl)piperidin-4-yl]oxy}benzonitrile]
IC50: 310 nM

Cc1nn(C)c(C)c1S(=O)(=O)N1CCC(Oc2ccc(Cl)cc2)CC1 [Example 5, 4-(4-Chlorophenoxy)-1-[(1,3,5-trimethyl-1H-pyrazol-4-yl)sulfonyl]piperidine]
IC50: 530 nM

Cc1nn(C)c(C)c1S(=O)(=O)N1CCC(Oc2ccc(Cl)cc2C(F)(F)F)CC1 [Example 39, 4-[4-Chloro-2-(trifluoromethyl)phenoxy]-1-(trimethyl-1H-pyrazole-4-sulfonyl)piperidine]
IC50: 210 nM

Cc1cnn(C)c1S(=O)(=O)N1CCC(Oc2ccc(Cl)cc2)CC1 [Example 37, 4-(4-Chlorophenoxy)-1-(1,4-dimethyl-1H-pyrazole-5-sulfonyl)piperidine]
IC50: 7400 nM

Cc1nn(C)c(Cl)c1S(=O)(=O)N1CCC(Cc2ccc(Cl)cc2)CC1 [Example 68, 1-((5-Chloro-1,3-dimethyl-1H-pyrazol-4-yl)sulfonyl)-4-(4chlorobenzyl)piperidine]
IC50: 2020 nM

Cc1nn(C)c(C)c1S(=O)(=O)N1CCC(Oc2ccc(OC(F)(F)F)cc2)CC1 [Example 3, 4-[4-(Trifluoromethoxy)phenoxy]-1-[(1,3,5-trimethyl-1H-pyrazol-4-yl)sulfonyl]piperidine]
IC50: 1400 nM

COc1c(F)cc(OC2CCN(S(=O)(=O)c3c(C)nn(C)c3C)CC2)cc1F [Example 44, 4-(3,5-Difluoro-4-methoxyphenoxy)-1-(trimethyl-1H-pyrazole-4-sulfonyl)piperidine]
IC50: 5100 nM

Cc1nn(C)c(C)c1S(=O)(=O)N1CCC(Nc2ccc(Cl)c(Cl)c2)CC1 [Example 52, N-(3,4-Dichlorophenyl)-1-((1,3,5-trimethyl-1H-pyrazol-4-yl)sulfonyl)piperidin-4-amine]
IC50: 2700 nM

Cc1n[nH]c(C)c1S(=O)(=O)N1CCC(Oc2ccc3ccccc3c2)CC1 [Example 33, 1-[(3,5-Dimethyl-1H-pyrazol-4-yl)sulfonyl]-4-(naphthalen-2-yloxy)piperidine]
IC50: 440 nM
